# Data published in the supplement of paper PMC10307832.
# Tests used:
# Test in all cases: relative viability (nuclei count vs DMSO), 5 days (fraction); higher = more cells survive
# NCI-H2228 = tested on: NCI-H2228
# Summary of the method: (§1)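 Cells from lung cancer lines were seeded into 1536-well plates and, one day later, dosed by pin tool. Treatments were either a single drug or a fixed dose of an anchor drug with five library-drug doses (not always all listed) in √10 steps. After 5 days, nuclei were stained in a one-step fixation (final 0.05% Triton X-100, 1% formaldehyde, 1 ug/ml Hoechst) and counted on 4× images, and relative viability is the treated-to-vehicle nuclei ratio, as the median of duplicate plates.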
# NCI-H2126 = tested on: NCI-H2126
# Summary of the method: as §1
# HCC-366 = tested on: HCC-366
# Summary of the method: as §1
# NCI-H1993 = tested on: NCI-H1993
# Summary of the method: as §1
# EMC-BAC-2 = tested on: EMC-BAC-2
# Summary of the method: as §1
# COR-L23 = tested on: COR-L23
# Summary of the method: as §1
# NCI-H1395 = tested on: NCI-H1395
# Summary of the method: as §1
# HCC-15 = tested on: HCC-15
# Summary of the method: as §1
# LC-2-ad = tested on: LC-2-ad
# Summary of the method: as §1
# SK-LU-1 = tested on: SK-LU-1
# Summary of the method: as §1
# HOP-62 = tested on: HOP-62
# Summary of the method: as §1
# NCI-H2023 = tested on: NCI-H2023
# Summary of the method: as §1
# NCI-H2405 = tested on: NCI-H2405
# Summary of the method: as §1
# NCI-H1944 = tested on: NCI-H1944
# Summary of the method: as §1
# HARA = tested on: HARA
# Summary of the method: as §1
# NCI-H358 = tested on: NCI-H358
# Summary of the method: as §1
# NCI-H1793 = tested on: NCI-H1793
# Summary of the method: as §1
# HCC-78 = tested on: HCC-78
# Summary of the method: as §1
# NCI-H838 = tested on: NCI-H838
# Summary of the method: as §1
# ChaGo-K-1 = tested on: ChaGo-K-1
# Summary of the method: as §1
# ABC-1 = tested on: ABC-1
# Summary of the method: as §1
# NCI-H23 = tested on: NCI-H23
# Summary of the method: as §1
structure (smiles),measurement,setting,value
O=c1cc(-c2cccc3c2Sc2ccccc2S3)oc(N2CCOCC2)c1 + N=C(N)NC(=N)NCCc1ccccc1 [Phenformin] (partner 250 µM),relative viability,NCI-H2228; first compound 0.08 µM,0.346
same,relative viability,NCI-H2228; first compound 0.253 µM,0.25
same,relative viability,NCI-H2228; first compound 0.8 µM,0.426
same,relative viability,NCI-H2228; first compound 2.53 µM,0.267
same,relative viability,NCI-H2228; first compound 8 µM,0.277
same,relative viability,NCI-H2126; first compound 0.08 µM,0.53
same,relative viability,NCI-H2126; first compound 0.253 µM,0.584
same,relative viability,NCI-H2126; first compound 0.8 µM,0.482
same,relative viability,NCI-H2126; first compound 2.53 µM,0.517
same,relative viability,NCI-H2126; first compound 8 µM,0.521
same,relative viability,HCC-366; first compound 0.08 µM,0.588
same,relative viability,HCC-366; first compound 0.253 µM,0.727
same,relative viability,HCC-366; first compound 0.8 µM,0.71
same,relative viability,HCC-366; first compound 2.53 µM,0.549
same,relative viability,HCC-366; first compound 8 µM,0.632
same,relative viability,NCI-H1993; first compound 0.08 µM,0.494
same,relative viability,NCI-H1993; first compound 0.253 µM,0.52
same,relative viability,NCI-H1993; first compound 0.8 µM,0.589
same,relative viability,NCI-H1993; first compound 2.53 µM,0.565
same,relative viability,NCI-H1993; first compound 8 µM,0.56
same,relative viability,EMC-BAC-2; first compound 0.08 µM,0.502
same,relative viability,EMC-BAC-2; first compound 0.253 µM,0.54
same,relative viability,EMC-BAC-2; first compound 0.8 µM,0.563
same,relative viability,EMC-BAC-2; first compound 2.53 µM,0.489
same,relative viability,EMC-BAC-2; first compound 8 µM,0.519
same,relative viability,COR-L23; first compound 0.08 µM,0.478
same,relative viability,COR-L23; first compound 0.253 µM,0.484
same,relative viability,COR-L23; first compound 0.8 µM,0.511
same,relative viability,COR-L23; first compound 2.53 µM,0.459
same,relative viability,COR-L23; first compound 8 µM,0.545
same,relative viability,NCI-H1395; first compound 0.08 µM,0.462
same,relative viability,NCI-H1395; first compound 0.253 µM,0.393
same,relative viability,NCI-H1395; first compound 0.8 µM,0.472
same,relative viability,NCI-H1395; first compound 2.53 µM,0.389
same,relative viability,NCI-H1395; first compound 8 µM,0.433
same,relative viability,HCC-15; first compound 0.08 µM,0.394
same,relative viability,HCC-15; first compound 0.253 µM,0.608
same,relative viability,HCC-15; first compound 0.8 µM,0.468
same,relative viability,HCC-15; first compound 2.53 µM,0.472
same,relative viability,HCC-15; first compound 8 µM,0.503
same,relative viability,LC-2-ad; first compound 0.08 µM,0.557
same,relative viability,LC-2-ad; first compound 0.253 µM,0.576
same,relative viability,LC-2-ad; first compound 0.8 µM,0.645
same,relative viability,LC-2-ad; first compound 2.53 µM,0.558
same,relative viability,LC-2-ad; first compound 8 µM,0.592
same,relative viability,SK-LU-1; first compound 0.08 µM,0.545
same,relative viability,SK-LU-1; first compound 0.253 µM,0.551
same,relative viability,SK-LU-1; first compound 0.8 µM,0.737
same,relative viability,SK-LU-1; first compound 2.53 µM,0.459
same,relative viability,SK-LU-1; first compound 8 µM,0.527
same,relative viability,HOP-62; first compound 0.08 µM,0.714
same,relative viability,HOP-62; first compound 0.253 µM,0.899
same,relative viability,HOP-62; first compound 0.8 µM,0.688
same,relative viability,HOP-62; first compound 2.53 µM,0.663
same,relative viability,HOP-62; first compound 8 µM,0.799
same,relative viability,NCI-H2023; first compound 0.08 µM,0.401
same,relative viability,NCI-H2023; first compound 0.253 µM,0.484
same,relative viability,NCI-H2023; first compound 0.8 µM,0.476
same,relative viability,NCI-H2023; first compound 2.53 µM,0.362
same,relative viability,NCI-H2023; first compound 8 µM,0.44
same,relative viability,NCI-H2405; first compound 0.08 µM,0.354
same,relative viability,NCI-H2405; first compound 0.253 µM,0.372
same,relative viability,NCI-H2405; first compound 0.8 µM,0.45
same,relative viability,NCI-H2405; first compound 2.53 µM,0.385
same,relative viability,NCI-H2405; first compound 8 µM,0.415
same,relative viability,NCI-H1944; first compound 0.08 µM,0.192
same,relative viability,NCI-H1944; first compound 0.253 µM,0.21
same,relative viability,NCI-H1944; first compound 0.8 µM,0.186
same,relative viability,NCI-H1944; first compound 2.53 µM,0.168
same,relative viability,NCI-H1944; first compound 8 µM,0.22
same,relative viability,HARA; first compound 0.08 µM,0.452
same,relative viability,HARA; first compound 0.253 µM,0.592
same,relative viability,HARA; first compound 0.8 µM,0.435
same,relative viability,HARA; first compound 2.53 µM,0.348
same,relative viability,HARA; first compound 8 µM,0.702
same,relative viability,NCI-H358; first compound 0.08 µM,0.301
same,relative viability,NCI-H358; first compound 0.253 µM,0.436
same,relative viability,NCI-H358; first compound 0.8 µM,0.378
same,relative viability,NCI-H358; first compound 2.53 µM,0.362
same,relative viability,NCI-H358; first compound 8 µM,0.356
same,relative viability,NCI-H1793; first compound 0.08 µM,0.344
same,relative viability,NCI-H1793; first compound 0.253 µM,0.398
same,relative viability,NCI-H1793; first compound 0.8 µM,0.347
same,relative viability,NCI-H1793; first compound 2.53 µM,0.306
same,relative viability,NCI-H1793; first compound 8 µM,0.279
same,relative viability,HCC-78; first compound 0.08 µM,0.62
same,relative viability,HCC-78; first compound 0.253 µM,0.769
same,relative viability,HCC-78; first compound 0.8 µM,0.638
same,relative viability,HCC-78; first compound 2.53 µM,0.555
same,relative viability,HCC-78; first compound 8 µM,0.667
same,relative viability,NCI-H838; first compound 0.08 µM,0.517
same,relative viability,NCI-H838; first compound 0.253 µM,0.726
same,relative viability,NCI-H838; first compound 0.8 µM,0.488
same,relative viability,NCI-H838; first compound 2.53 µM,0.531
same,relative viability,NCI-H838; first compound 8 µM,0.503
same,relative viability,ChaGo-K-1; first compound 0.08 µM,0.463
same,relative viability,ChaGo-K-1; first compound 0.253 µM,0.53
same,relative viability,ChaGo-K-1; first compound 0.8 µM,0.56
same,relative viability,ChaGo-K-1; first compound 2.53 µM,0.344
same,relative viability,ChaGo-K-1; first compound 8 µM,0.509
same,relative viability,ABC-1; first compound 0.08 µM,0.228
same,relative viability,ABC-1; first compound 0.253 µM,0.23
same,relative viability,ABC-1; first compound 0.8 µM,0.23
same,relative viability,ABC-1; first compound 2.53 µM,0.234
same,relative viability,ABC-1; first compound 8 µM,0.277
same,relative viability,NCI-H23; first compound 0.08 µM,0.811
same,relative viability,NCI-H23; first compound 0.253 µM,0.96
same,relative viability,NCI-H23; first compound 0.8 µM,0.901
same,relative viability,NCI-H23; first compound 2.53 µM,0.714
same,relative viability,NCI-H23; first compound 8 µM,0.959
